Data taken from patent publication US4259328A, “Morpholino pyridazinylhydrazones” (Richter Gedeon Vegyeszeti Gyar Rt, priority 1977, dated 1981).

Tested on: not listed separately
Assay: Acute toxicity (LD50) on mice
Conditions: mouse, in vivo, po

`CCCOC(=O)CC(C)=NNc1ccc(Cl)nn1` [Example 28, 3-(Propoxycarbonyl)-2-propylidene-3-chloro-6-pyridazinylhydrazone] and `CC(CC(=O)OC(C)C)=NNc1ccc(Cl)nn1` [Example 29, 3-(Isopropoxycarbonyl)-2-propylidene-3-chloro-6-pyridazinylhydrazone] cannot be ordered by LD50: greater than 200 mg/kg for the first, 250 mg/kg for the second.

First: CC(CC(=O)OC(C)(C)C)=NNc1ccc(N2CCOCC2)nn1 [Example 52, 3-(tert.-Butoxycarbonyl)-2-propylidene-3-morpholino-6-pyridazinylhydrazone]
Second: CC(CC(=O)OC(C)(C)C)=NNc1ccc(Cl)nn1 [Example 30, 3-(tert.-Butoxycarbonyl)-2-propylidene-3-chloro-6-pyridazinylhydrazone]
The LD50 of the first is 1.6-fold higher: 400 mg/kg for the first, 250 mg/kg for the second.

Compound `COC(=O)CC(=NNc1ccc(Cl)nn1)C(=O)OC` [Example 64, 1,2-di-(methoxycarbonyl)-ethylidene-(3-chloro-6-pyridazinyl)hydrazone] has an LD50 greater than 200 mg/kg.

Molecular target: T1, tyrosine-hydroxylase (Rattus norvegicus, UniProt P04177)
T1 construct: on rat adrenal homogenate; from tissue; host or cells: rat adrenal homogenate
T1 sequence (P04177 whole entry): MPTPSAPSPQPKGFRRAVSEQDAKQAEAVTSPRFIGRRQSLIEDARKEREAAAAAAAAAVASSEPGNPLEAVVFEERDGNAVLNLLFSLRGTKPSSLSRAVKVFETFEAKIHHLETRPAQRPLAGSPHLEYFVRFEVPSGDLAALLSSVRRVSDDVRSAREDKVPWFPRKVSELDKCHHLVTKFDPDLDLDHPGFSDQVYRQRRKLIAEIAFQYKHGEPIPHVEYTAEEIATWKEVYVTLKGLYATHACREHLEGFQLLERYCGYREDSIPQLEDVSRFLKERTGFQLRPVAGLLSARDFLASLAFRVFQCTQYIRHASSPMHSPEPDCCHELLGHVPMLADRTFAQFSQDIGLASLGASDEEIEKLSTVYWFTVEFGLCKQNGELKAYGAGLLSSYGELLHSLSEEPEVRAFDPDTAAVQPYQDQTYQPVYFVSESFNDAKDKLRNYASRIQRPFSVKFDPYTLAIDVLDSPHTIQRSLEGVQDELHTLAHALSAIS
Assay: In vitro tyrosine-hydroxylase inhibiting activity (TH) on rat adrenal homogenate
Assay type: biochemical
Conditions: 10^-4 mole/liter; read-out: Enzyme inhibiting activity, TH
Experimental: In vitro tyrosine-hydroxylase inhibiting activity (TH inhibiting activity) of the new compounds according to the invention was tested by the method of Nagatsu [Anal. Biochem., 9, 122 (1964)] on rat adrenal homogenate. Radioactive tyrosine was purified by the method elaborated by Ikeda [J. Biol. Chem., 241, 4452 (1966)]. TH activity of the rat adrenal homogenate amounted to […] nmoles/mg protein/60 min.
(§1) Inhibiting effect of several compounds encompassed by the formula I in comparison with some known compounds is listed in the following Table I.

Going from `CCCOC(=O)CC(C)=NNc1ccc(Cl)nn1` [Example 28, 3-(Propoxycarbonyl)-2-propylidene-3-chloro-6-pyridazinylhydrazone] to `CC(CC(=O)OC(C)C)=NNc1ccc(Cl)nn1` [Example 29, 3-(Isopropoxycarbonyl)-2-propylidene-3-chloro-6-pyridazinylhydrazone], the inhibition at 100 µM rises from 0% to 50%.

First: CC(CC(=O)OC(C)(C)C)=NNc1ccc(N2CCOCC2)nn1 [Example 52, 3-(tert.-Butoxycarbonyl)-2-propylidene-3-morpholino-6-pyridazinylhydrazone]
Second: CC(CC(=O)OC(C)(C)C)=NNc1ccc(Cl)nn1 [Example 30, 3-(tert.-Butoxycarbonyl)-2-propylidene-3-chloro-6-pyridazinylhydrazone]
The inhibition at 100 µM of the first is higher: 65% for the first, 50% for the second.

`COC(=O)CC(=NNc1ccc(Cl)nn1)C(=O)OC` [Example 64, 1,2-di-(methoxycarbonyl)-ethylidene-(3-chloro-6-pyridazinyl)hydrazone] gave an inhibition at 100 µM of 36%.

Same assay, conditions: 10^-5 mole/liter; read-out: Enzyme inhibiting activity, TH

`CCCOC(=O)CC(C)=NNc1ccc(Cl)nn1` [Example 28, 3-(Propoxycarbonyl)-2-propylidene-3-chloro-6-pyridazinylhydrazone] and `CC(CC(=O)OC(C)C)=NNc1ccc(Cl)nn1` [Example 29, 3-(Isopropoxycarbonyl)-2-propylidene-3-chloro-6-pyridazinylhydrazone] are the same in inhibition at 10 µM: 0% for the first, 0% for the second.

Going from `CC(CC(=O)OC(C)(C)C)=NNc1ccc(N2CCOCC2)nn1` [Example 52, 3-(tert.-Butoxycarbonyl)-2-propylidene-3-morpholino-6-pyridazinylhydrazone] to `CC(CC(=O)OC(C)(C)C)=NNc1ccc(Cl)nn1` [Example 30, 3-(tert.-Butoxycarbonyl)-2-propylidene-3-chloro-6-pyridazinylhydrazone], the inhibition at 10 µM falls from 40% to 0%.

`COC(=O)CC(=NNc1ccc(Cl)nn1)C(=O)OC` [Example 64, 1,2-di-(methoxycarbonyl)-ethylidene-(3-chloro-6-pyridazinyl)hydrazone] gave an inhibition at 10 µM of 10%.

Molecular target: T2, dopamine-β-hydroxylase (Bos taurus, UniProt P15101)
T2 construct: from tissue; host or cells: bovine adrenal (gland) preparations
T2 sequence (P15101 1-610): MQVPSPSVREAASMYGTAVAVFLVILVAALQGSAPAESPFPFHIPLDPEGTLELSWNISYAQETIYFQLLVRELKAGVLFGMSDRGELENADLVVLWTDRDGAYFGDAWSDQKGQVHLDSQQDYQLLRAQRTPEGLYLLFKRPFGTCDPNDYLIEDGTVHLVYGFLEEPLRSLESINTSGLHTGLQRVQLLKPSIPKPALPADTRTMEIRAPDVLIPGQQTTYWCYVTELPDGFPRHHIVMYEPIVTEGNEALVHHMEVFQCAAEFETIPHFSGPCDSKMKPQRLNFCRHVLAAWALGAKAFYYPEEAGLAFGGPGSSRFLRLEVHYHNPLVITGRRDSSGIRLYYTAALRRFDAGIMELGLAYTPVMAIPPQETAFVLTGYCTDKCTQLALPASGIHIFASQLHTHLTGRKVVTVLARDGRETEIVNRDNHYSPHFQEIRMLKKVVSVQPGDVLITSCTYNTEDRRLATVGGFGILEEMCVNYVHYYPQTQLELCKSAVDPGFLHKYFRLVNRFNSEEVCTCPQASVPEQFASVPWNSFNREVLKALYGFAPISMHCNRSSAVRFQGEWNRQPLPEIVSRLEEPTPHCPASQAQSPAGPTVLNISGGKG
Assay: Dopamine-β-hydroxylase inhibiting activity (DBH) on bovine adrenal (gland) preparations
Assay type: biochemical
Conditions: 10^-4 mole/liter; read-out: Enzyme inhibiting activity, DBH
Experimental: Dopamine-β-hydroxylase inhibiting activity (DBH inhibiting activity) of the compounds according to the invention was tested on bovine adrenal (gland) preparations by a modified version of Nagatsu's method [B.B. Acta, 139 319 (1967)].
as §1

Compared with `CCCOC(=O)CC(C)=NNc1ccc(Cl)nn1` [Example 28, 3-(Propoxycarbonyl)-2-propylidene-3-chloro-6-pyridazinylhydrazone], `CC(CC(=O)OC(C)C)=NNc1ccc(Cl)nn1` [Example 29, 3-(Isopropoxycarbonyl)-2-propylidene-3-chloro-6-pyridazinylhydrazone] is lower in inhibition at 100 µM: 90% for the first, 70% for the second.

Compared with `CC(CC(=O)OC(C)(C)C)=NNc1ccc(N2CCOCC2)nn1` [Example 52, 3-(tert.-Butoxycarbonyl)-2-propylidene-3-morpholino-6-pyridazinylhydrazone], `CC(CC(=O)OC(C)(C)C)=NNc1ccc(Cl)nn1` [Example 30, 3-(tert.-Butoxycarbonyl)-2-propylidene-3-chloro-6-pyridazinylhydrazone] is higher in inhibition at 100 µM: 30% for the first, 70% for the second.

Compound `COC(=O)CC(=NNc1ccc(Cl)nn1)C(=O)OC` [Example 64, 1,2-di-(methoxycarbonyl)-ethylidene-(3-chloro-6-pyridazinyl)hydrazone] has an inhibition at 100 µM of 50%.

Same assay, conditions: 10^-5 mole/liter; read-out: Enzyme inhibiting activity, DBH

Compared with `CCCOC(=O)CC(C)=NNc1ccc(Cl)nn1` [Example 28, 3-(Propoxycarbonyl)-2-propylidene-3-chloro-6-pyridazinylhydrazone], `CC(CC(=O)OC(C)C)=NNc1ccc(Cl)nn1` [Example 29, 3-(Isopropoxycarbonyl)-2-propylidene-3-chloro-6-pyridazinylhydrazone] is lower in inhibition at 10 µM: 71% for the first, 47% for the second.

Going from `CC(CC(=O)OC(C)(C)C)=NNc1ccc(N2CCOCC2)nn1` [Example 52, 3-(tert.-Butoxycarbonyl)-2-propylidene-3-morpholino-6-pyridazinylhydrazone] to `CC(CC(=O)OC(C)(C)C)=NNc1ccc(Cl)nn1` [Example 30, 3-(tert.-Butoxycarbonyl)-2-propylidene-3-chloro-6-pyridazinylhydrazone], the inhibition at 10 µM rises from 0% to 22%.

Work on `COC(=O)CC(=NNc1ccc(Cl)nn1)C(=O)OC` [Example 64, 1,2-di-(methoxycarbonyl)-ethylidene-(3-chloro-6-pyridazinyl)hydrazone] yielded an inhibition at 10 µM of 0%.

Tested on: spontaneous hypertensive rats (Wistar-Okamoto rats)
Assay: Blood pressure lowering activity, systolic blood pressure of waking spontaneous hypertensive rats, oral
Assay type: in vivo, rat
Conditions: Rattus norvegicus; 4 hours, 50 mg/kg, oral; read-out: Reduction in blood pressure
Experimental: Blood pressure lowering activity of the new compounds according to the invention was tested on spontaneous hypertensive rats (Wistar-Okamoto rats) following the method described in Arzn. Forsch., 6, 222 (1956). Systolic blood pressure of waking animals was measured in arteria caudalis 4, 24, 48 and 72 hours after the oral administration of the test compounds.

Compared with `CCCOC(=O)CC(C)=NNc1ccc(Cl)nn1` [Example 28, 3-(Propoxycarbonyl)-2-propylidene-3-chloro-6-pyridazinylhydrazone], `CC(CC(=O)OC(C)C)=NNc1ccc(Cl)nn1` [Example 29, 3-(Isopropoxycarbonyl)-2-propylidene-3-chloro-6-pyridazinylhydrazone] is lower in change in vivo at 50 mg/kg: -29% for the first, -30% for the second.

First: COC(=O)CC(=NNc1ccc(Cl)nn1)C(=O)OC [Example 64, 1,2-di-(methoxycarbonyl)-ethylidene-(3-chloro-6-pyridazinyl)hydrazone]
Second: CC(CC(=O)OC(C)(C)C)=NNc1ccc(Cl)nn1 [Example 30, 3-(tert.-Butoxycarbonyl)-2-propylidene-3-chloro-6-pyridazinylhydrazone]
The change in vivo at 50 mg/kg of the first is higher: -25% for the first, -31% for the second.

Same assay, conditions: Rattus norvegicus; 4 hours, × = 1.25 mg/kg, oral; read-out: Reduction in blood pressure

Compound `CC(CC(=O)OC(C)(C)C)=NNc1ccc(N2CCOCC2)nn1` [Example 52, 3-(tert.-Butoxycarbonyl)-2-propylidene-3-morpholino-6-pyridazinylhydrazone] has a change in vivo at 1.25 mg/kg of -21%.

Same assay, conditions: Rattus norvegicus; 24 hours, 50 mg/kg, oral; read-out: Reduction in blood pressure

Compared with `CCCOC(=O)CC(C)=NNc1ccc(Cl)nn1` [Example 28, 3-(Propoxycarbonyl)-2-propylidene-3-chloro-6-pyridazinylhydrazone], `CC(CC(=O)OC(C)C)=NNc1ccc(Cl)nn1` [Example 29, 3-(Isopropoxycarbonyl)-2-propylidene-3-chloro-6-pyridazinylhydrazone] is higher in change in vivo at 50 mg/kg: -25% for the first, -15% for the second.

Going from `COC(=O)CC(=NNc1ccc(Cl)nn1)C(=O)OC` [Example 64, 1,2-di-(methoxycarbonyl)-ethylidene-(3-chloro-6-pyridazinyl)hydrazone] to `CC(CC(=O)OC(C)(C)C)=NNc1ccc(Cl)nn1` [Example 30, 3-(tert.-Butoxycarbonyl)-2-propylidene-3-chloro-6-pyridazinylhydrazone], the change in vivo at 50 mg/kg falls from -11% to -14%.

Same assay, conditions: Rattus norvegicus; 24 hours, × = 1.25 mg/kg, oral; read-out: Reduction in blood pressure

With `CC(CC(=O)OC(C)(C)C)=NNc1ccc(N2CCOCC2)nn1` [Example 52, 3-(tert.-Butoxycarbonyl)-2-propylidene-3-morpholino-6-pyridazinylhydrazone] the change in vivo at 1.25 mg/kg was -9%.

Same assay, conditions: dose 20 mg/kg

`CC(CC(=O)OC(C)C)=NNc1ccc(Cl)nn1` [Example 29, 3-(Isopropoxycarbonyl)-2-propylidene-3-chloro-6-pyridazinylhydrazone] and `CC(CC(=O)OC(C)(C)C)=NNc1ccc(Cl)nn1` [Example 30, 3-(tert.-Butoxycarbonyl)-2-propylidene-3-chloro-6-pyridazinylhydrazone] are the same in “duration of blood pressure lowering effect” value: 48 h for the first, 48 h for the second.

Same assay, conditions: dose of 50 mg/kg

`CC(CC(=O)OC(C)C)=NNc1ccc(Cl)nn1` [Example 29, 3-(Isopropoxycarbonyl)-2-propylidene-3-chloro-6-pyridazinylhydrazone] and `CC(CC(=O)OC(C)(C)C)=NNc1ccc(Cl)nn1` [Example 30, 3-(tert.-Butoxycarbonyl)-2-propylidene-3-chloro-6-pyridazinylhydrazone] are the same in “duration of blood pressure lowering effect” value: 72 h for the first, 72 h for the second.

Same assay, conditions: ≥-15%

With `CCCOC(=O)CC(C)=NNc1ccc(Cl)nn1` [Example 28, 3-(Propoxycarbonyl)-2-propylidene-3-chloro-6-pyridazinylhydrazone] the “significant blood pressure lowering activity” value was no less than -15%.
With `CC(CC(=O)OC(C)(C)C)=NNc1ccc(N2CCOCC2)nn1` [Example 52, 3-(tert.-Butoxycarbonyl)-2-propylidene-3-morpholino-6-pyridazinylhydrazone] the “significant blood pressure lowering activity” value was no less than -15%.
For `COC(=O)CC(=NNc1ccc(Cl)nn1)C(=O)OC` [Example 64, 1,2-di-(methoxycarbonyl)-ethylidene-(3-chloro-6-pyridazinyl)hydrazone], the “significant blood pressure lowering activity” value was no less than -15%.
In the case of `CC(CC(=O)OC(C)C)=NNc1ccc(Cl)nn1` [Example 29, 3-(Isopropoxycarbonyl)-2-propylidene-3-chloro-6-pyridazinylhydrazone], the “significant blood pressure lowering activity” value is reported as no less than -15%.
For `CC(CC(=O)OC(C)(C)C)=NNc1ccc(Cl)nn1` [Example 30, 3-(tert.-Butoxycarbonyl)-2-propylidene-3-chloro-6-pyridazinylhydrazone], the “significant blood pressure lowering activity” value was no less than -15%.
